Experimental data as given in patent US20100130425A1, “USE OF TOLL-LIKE RECEPTOR LIGANDS IN TREATING EXCITOTOXIC INJURY, ISCHEMIA AND/OR HYPOXIA” (Oregon Health & Science University, priority 2005, published 2010).

Tests used:
[1] = test system: mice subjected to middle cerebral artery occlusion (MCAO); assay: In vivo ischemic/reperfusion model (MCAO), mouse model of stroke
Experimental: Ischemic/Reperfusion Model. […] Mice were anesthetized by halothane inhalation (4%/L O2) and maintained with 1.5%/L O2. The middle cerebral artery was blocked by a silicone-coated 8-0 monofilament nylon surgical suture that was threaded through the external carotid to the internal carotid and finally blocks the bifurcation into the MCA and anterior cerebral artery. The filament was maintained intraluminally for 45 min and then removed, thereby restoring blood flow. Cerebral blood flow (CBF) was monitored throughout the surgery by laser Doppler flowmetry (Periflow 5000; Perimed, Sweden). During and 2 hours following surgery, body temperatures was kept constant at 37° C. with a heating pad controlled by a thermostat. Body weights were monitored prior to and following MCAO.
Infarct calculations. […] Perfused brains were placed on a tissue slicer and sectioned into 1 mm thick coronal slices.

[2] = test system: mouse cortical neuronal cultures
Experimental: In vitro mouse neuronal cultures: Cortical neuronal cultures were prepared as described Jin et al. (Neurochem. Res. 27:1105-1112, 2002) from E-16 mouse pups (C57B1/6, Jackson labs). Briefly, cortices were dissected and separated from meninges, olfactory bulbs, basal ganglia and hippocampi, and the cortices digested in 0.05% trypsin-EDTA for 15 min at 37° C. Cells were triturated and single cell suspension was plated at density of 5×10^5 cells/ml. Cells were cultured in Neurobasal A medium (Invitrogen, Carlsbad) containing 2% B27, 2 mM Glutamate. Neuronal enrichment was determined by staining for neurons, microglia and astrocytes with cell specific markers.
In vitro neuronal ischemia model: Neuronal cultures were treated with varying doses of an exemplary CpG oligonucleotide (SEQ ID NO: 1) in Neurobasal-A media supplemented with 1% Glutamax 24 hours prior to 3 hours oxygen-glucose-deprivation (OGD) treatment. OGD was performed by replacing medium with PBS containing 0.5 mM CaCl2 and 5 mM MgCl2, pH 7.4, and then placing the neuronal cultures in an anaerobic chamber (Form a Scientific) containing an atmosphere of 85% N2, 5% H2, 10% CO2 maintained at 35° C. Following OGD-treatment (3 hours), PBS was replaced with Minimum Essential Medium (MEM) and the cells returned to normoxic conditions. Percent neuronal cell death was determined by propidium iodide staining in two different fields of view in duplicate, compared to total DAPI staining in identical fields.
In vitro neuronal ischemia model: Neuronal cultures were treated with varying doses (0.1 μg/ml and 1 μg/ml) of Gardiquimod in Neurobasal-A media supplemented with 1% Glutamax 24 hours prior to 3 hours oxygen-glucose-deprivation (OGD) treatment. OGD was performed and cells analyzed as described in Example 1.
OGD was performed and cell analyzed as described in Example 1.

TNF-α = assay: Serum TNF-α in mice, immunoassay; assay type: in vivo, mouse; details: 1 mg/kg, 2 hours prior to serum collection
Experimental: (§1) Mice were injected with saline, CpG (0.8 mg/kg) LPS (0.4 mg/kg) or Poly I:C (1 mg/kg) 2 hours prior to serum collection. Levels of TNF-α and IFN-β were measured using commercially available immunoassay kits.

IFN-β = assay: Serum IFN-β in mice, immunoassay; assay type: in vivo, mouse; details: 1 mg/kg, 2 hours prior to serum collection; versus CpG 0.8 mg/kg and LPS 0.4 mg/kg
Experimental: as §1

[3] = test system: mice subjected to bilateral renal ischemia; assay: In vivo model of renal ischemia (bilateral renal clamping), serum creatinine; parameters: species or system mouse; details: 48 hours prior to bilateral renal clamping (45 minutes); 48 hours following reperfusion
Experimental: Intraperitoneal Delivery: Preconditioning agent Poly I:C (25 μg) in artificial saline or saline alone (control) was administered intraperitoneally to subject mice 72 hours prior to middle cerebral artery occlusion (MCAO; 45 minutes) as described in Example 3 or 48 hours prior to bilateral renal clamping (45 min).
Creatinine levels: To assess renal injury due to the ischemia, creatinine levels were measured 48 hours following reperfusion as follows. Mice were treated with saline or poly I:C (1.6 mg/kg; sc) 48 hrs prior to renal ischemia. Just prior to surgery blood was collected via the saphenous vien for baseline determination of creatinine levels. Bilateral ischemia was induced as follows: mice were anesthestized with 3% isoflurane and maintained at 1.5-2% throughout surgery. A midline incision was made and both kidneys exteriorized and clamps placed on the artery and veins of each kidney for 45 minutes. After ischemia, the clamps were withdrawn inducing reperfusion and the incision sutured up. Mice were euthanized 48 hr post initiation of reperfusion and blood collected. Serum levels of creatinine were determined via a commercially available immunoassay.

[4] = test system: mouse cortical neuronal cultures; assay: In vitro neuronal ischemia model, treatment after OGD; assay type: cell-based; details: 1 to 100 μg/ml after 3 hours OGD; analyzed 24 hours later
Experimental: In vitro neuronal ischemia model: Neuronal cultures were exposed to 3 hours oxygen-glucose-deprivation (OGD) treatment as described in Example 1. After OGD, cells were treated with 1 to 100 μg/ml Poly I:C. 24 hours later cells were analyzed as described in Example 1.

[5] = cited from earlier work
human TLR9 = target: T1, human TLR9 (Homo sapiens, UniProt Q9NR96); assay: NF-κB inducible SEAP reporter in 293-hTLR9 cells; assay type: cell-based; details: 5 μM, 18 hours; hydrolysis of pNpp at 405 nm
T1 construct: host or cells: HEK293 (293-hTLR9)
T1 sequence (Q9NR96 26-1032): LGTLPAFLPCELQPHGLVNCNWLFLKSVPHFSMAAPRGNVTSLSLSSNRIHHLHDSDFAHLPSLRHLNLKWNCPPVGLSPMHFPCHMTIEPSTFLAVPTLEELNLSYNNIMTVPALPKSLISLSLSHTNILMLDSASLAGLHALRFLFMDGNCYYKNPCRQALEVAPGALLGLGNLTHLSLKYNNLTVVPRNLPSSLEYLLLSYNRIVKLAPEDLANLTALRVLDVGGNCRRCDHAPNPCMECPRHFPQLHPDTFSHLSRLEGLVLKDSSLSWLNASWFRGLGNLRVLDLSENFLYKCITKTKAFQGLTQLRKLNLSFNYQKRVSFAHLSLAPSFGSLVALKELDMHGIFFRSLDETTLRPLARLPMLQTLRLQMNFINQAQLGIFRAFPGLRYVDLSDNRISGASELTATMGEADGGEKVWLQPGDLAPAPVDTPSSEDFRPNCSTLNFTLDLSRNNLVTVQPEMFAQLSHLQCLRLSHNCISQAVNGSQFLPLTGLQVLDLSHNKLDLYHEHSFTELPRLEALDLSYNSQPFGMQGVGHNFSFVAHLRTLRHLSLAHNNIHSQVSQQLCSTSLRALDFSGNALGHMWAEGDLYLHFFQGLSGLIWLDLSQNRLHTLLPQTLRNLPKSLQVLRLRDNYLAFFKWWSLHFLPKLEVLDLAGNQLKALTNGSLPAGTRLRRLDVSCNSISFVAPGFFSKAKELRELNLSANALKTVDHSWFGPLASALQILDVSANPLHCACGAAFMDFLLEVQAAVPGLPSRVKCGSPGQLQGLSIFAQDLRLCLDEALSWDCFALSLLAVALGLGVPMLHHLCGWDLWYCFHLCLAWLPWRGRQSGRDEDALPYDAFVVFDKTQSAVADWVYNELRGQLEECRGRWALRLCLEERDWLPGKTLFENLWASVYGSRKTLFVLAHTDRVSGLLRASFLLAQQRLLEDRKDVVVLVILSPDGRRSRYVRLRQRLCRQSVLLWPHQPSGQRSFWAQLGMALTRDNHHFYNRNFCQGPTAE
Experimental: FIG. 3 is a bar graph illustrating NF-κB induction following in vitro treatment with an exemplary CpG oligonucleotide. 293-hTLR9 cells transfected with an NFκB inducible reporter plasmid (pNifty2-SEAP) were treated with CpG (5 μM). NFκB induction of alkaline phosphatase expression is indicated as hydrolysis of pNpp at 405 nm.
Human embryonic kidney cell line HEK293 was transfected with an expressible nucleic acid encoding human TLR9 and with an NFκB reporter construct (InvivoGen). The dual transfected cells were incubated with a 5 μM CpG oligonucleotide (SEQ ID NO: 1) for 18 hours.

[6] = 0.2-1.6 mg/kg subcutaneous 72 hours prior to 60 minutes MCAO, 24 hours post MCAO

## CCNCc1nc2c(N)nc3ccccc3c2n1CC(C)(C)O [Gardiquimod]
[1]; 0.2-1.6 mg/kg 72 hours prior to 60 minutes MCAO, TTC staining 24 hours later
  percent infarct (% of hemisphere with infarction): percent infarct was significantly decreased in a dose-dependent fashion
[1]; [6]
  focal neurological deficit: reduced neurological deficits
  general neurological deficit: reduced neurological deficits
[2]; 0.1 or 1 μg/ml 24 hours prior to OGD (3 hours), propidium iodide staining 24 hours following OGD
  neuroprotection against oxygen-glucose deprivation (% cell death): confers neuroprotection against oxygen-glucose deprivation

## polyinosinic polycytidylic acid [Poly I:C]
TNF-α
  serum TNFα levels: increases TNFα levels
IFN-β
  serum IFNβ levels: produces significantly more IFNβ than stimulation of TLR9 or TLR4
[3]
  serum creatinine levels (renal injury): reduced the injury to baseline levels
[1]; 25 μg intraperitoneally 72 hours prior to 45 minutes MCAO, TTC 72 hours following surgery
  percent infarct: percent infarct was significantly decreased
[4]
  neuroprotection, treatment after oxygen-glucose deprivation: induces neuroprotection
[2]; highest dose, no OGD
  cell death without exposure to OGD: did not induce cell death
[2]; mixed cortical cultures, increasing doses 24 hours prior to OGD
  neuroprotection against oxygen-glucose deprivation (cell death by PI staining): induces neuroprotection against oxygen-glucose deprivation

## CCOCc1nc2c(N)nc3ccccc3c2n1CC(C)(C)O [resiquimod]
[1]; 0.8 mg/kg s.c. 72 hours prior to MCAO, 24 hours following MCAO
  infarct size: provides neuroprotection against cerebral ischemia

## lipopolysaccharide [LPS]
[1]; mouse, in vivo, 0.4 mg/kg
  infarct size (neuroprotection): no considerable neuroprotection

## CC(C)Cn1cnc2c(N)nc3ccccc3c21 [imiquimod]
[1]; mouse, in vivo, ip
  infarct size: protects against cell death

## CCOCc1nc2c(N)nc3ccccc3c2[nH]1 [CL097]
[5]
  water solubility: ≥ 20 mg/mL

## 5′-tccatgacgttcctgacgtt-3′ [CpG oligonucleotide (SEQ ID NO: 1)]
Human TLR9
  NFκB induction of alkaline phosphatase expression: produced alkaline phosphatase
[1]; 20 μg administered between 72 and 24 hours prior to MCAO
  percent infarct, time course of preconditioning: peak preconditioning
[1]; 20 μg administered up to a week prior to MCAO
  percent infarct, time course of preconditioning: significant preconditioning
[1]; intraperitoneal, 72 hours prior to 45 min MCAO
  percent infarct: percent infarct was significantly decreased
[2]; treated 24 hours prior to 3 hours OGD, propidium iodide staining
  neuroprotection against oxygen-glucose deprivation (percent neuronal cell death): confers neuroprotection against oxygen-glucose deprivation
